For test [1], the system named is human tumor xenograft models. The settings on record: cited from earlier work.
For a further test, the target named is mTOR (Homo sapiens, UniProt P42345). The settings on record: read-out: mTOR IC50; mTOR complexes / mTOR enzymes; cited from earlier work.
The test system of test [2] is acute lymphoblastic leukemia. The conditions noted are these: in vivo; cited from earlier work.
The next test deals with PI3Kα (Homo sapiens, UniProt P42336). Put plainly: PI3K-alpha fluorescence polarization assay. The class given is biochemical. The settings on record: 20 μM PIP2, 25 μM ATP; read-out: PI3Kα Median IC50. In general terms: Polarisation of emitted light reports the rotation of a fluorescent probe.
The target in another test is PI3Kγ (Homo sapiens, UniProt P48736). Put plainly: PI3K-gamma fluorescence polarization assay. The conditions noted are these: 20 μM PIP2, 25 μM ATP; read-out: PI3Kγ Median IC50. In kind it is biochemical. A digest of the protocol: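 Enzyme preincubated with compound in 20 mM HEPES pH 7.5, 2 mM MgCl2, 0.05% CHAPS, 0.01% βME; reaction started with substrate giving 20 μM diC8 PIP2 and 25 μM ATP final, run 30-60 min at room temperature. Stopped with TAMRA-labelled PIP3 detector probe plus GST-GRP; PIP3 formation read by fluorescence polarization after 90-110 min.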

The target in a further test is T1, mTOR Kinase (FLAG-TOR) (Homo sapiens, UniProt P42345).
T1 construct: FLAG
Put plainly: mTOR kinase assay, purified enzyme, DELFIA format. In kind it is biochemical. The conditions noted are these: 100 μM ATP, 1.25 μM His6-S6K; read-out: mTOR Kinase Median IC50.

One may read the IC50 as the point on the concentration scale where inhibition reaches its midpoint.

Read-outs that look alike come from different tables or passages of the source. Bounds are passed on as bounds.

Sequence of PI3Kγ (P48736 whole entry, species assumed): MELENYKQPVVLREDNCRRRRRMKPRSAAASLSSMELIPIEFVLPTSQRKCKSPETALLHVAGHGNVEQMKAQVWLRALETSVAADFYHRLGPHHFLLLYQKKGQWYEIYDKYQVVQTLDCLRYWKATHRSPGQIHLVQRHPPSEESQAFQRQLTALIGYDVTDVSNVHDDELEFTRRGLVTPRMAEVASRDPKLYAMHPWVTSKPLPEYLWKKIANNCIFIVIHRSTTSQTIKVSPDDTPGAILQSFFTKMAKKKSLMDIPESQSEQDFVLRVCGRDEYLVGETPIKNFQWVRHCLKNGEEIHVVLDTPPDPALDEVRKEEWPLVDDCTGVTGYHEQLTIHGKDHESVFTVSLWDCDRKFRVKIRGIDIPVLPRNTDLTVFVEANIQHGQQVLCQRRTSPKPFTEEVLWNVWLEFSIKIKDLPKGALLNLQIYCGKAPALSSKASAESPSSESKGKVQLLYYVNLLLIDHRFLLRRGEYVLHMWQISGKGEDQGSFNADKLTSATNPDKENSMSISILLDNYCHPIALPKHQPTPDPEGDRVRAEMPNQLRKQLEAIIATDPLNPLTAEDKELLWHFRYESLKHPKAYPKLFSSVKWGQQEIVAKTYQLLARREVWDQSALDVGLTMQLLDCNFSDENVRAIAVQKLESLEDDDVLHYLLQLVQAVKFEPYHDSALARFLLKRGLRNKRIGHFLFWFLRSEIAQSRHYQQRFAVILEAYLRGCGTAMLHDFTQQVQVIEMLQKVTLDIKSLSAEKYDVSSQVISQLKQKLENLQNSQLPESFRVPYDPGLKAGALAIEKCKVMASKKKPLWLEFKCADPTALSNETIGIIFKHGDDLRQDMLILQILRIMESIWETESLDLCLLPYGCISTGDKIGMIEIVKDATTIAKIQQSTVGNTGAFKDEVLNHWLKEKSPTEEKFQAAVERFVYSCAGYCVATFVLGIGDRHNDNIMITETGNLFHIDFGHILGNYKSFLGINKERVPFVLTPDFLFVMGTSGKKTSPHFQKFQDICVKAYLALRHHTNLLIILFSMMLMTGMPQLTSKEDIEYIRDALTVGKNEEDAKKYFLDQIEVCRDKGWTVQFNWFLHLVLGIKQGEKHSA
Sequence of PI3Kα (P42336 whole entry, species assumed): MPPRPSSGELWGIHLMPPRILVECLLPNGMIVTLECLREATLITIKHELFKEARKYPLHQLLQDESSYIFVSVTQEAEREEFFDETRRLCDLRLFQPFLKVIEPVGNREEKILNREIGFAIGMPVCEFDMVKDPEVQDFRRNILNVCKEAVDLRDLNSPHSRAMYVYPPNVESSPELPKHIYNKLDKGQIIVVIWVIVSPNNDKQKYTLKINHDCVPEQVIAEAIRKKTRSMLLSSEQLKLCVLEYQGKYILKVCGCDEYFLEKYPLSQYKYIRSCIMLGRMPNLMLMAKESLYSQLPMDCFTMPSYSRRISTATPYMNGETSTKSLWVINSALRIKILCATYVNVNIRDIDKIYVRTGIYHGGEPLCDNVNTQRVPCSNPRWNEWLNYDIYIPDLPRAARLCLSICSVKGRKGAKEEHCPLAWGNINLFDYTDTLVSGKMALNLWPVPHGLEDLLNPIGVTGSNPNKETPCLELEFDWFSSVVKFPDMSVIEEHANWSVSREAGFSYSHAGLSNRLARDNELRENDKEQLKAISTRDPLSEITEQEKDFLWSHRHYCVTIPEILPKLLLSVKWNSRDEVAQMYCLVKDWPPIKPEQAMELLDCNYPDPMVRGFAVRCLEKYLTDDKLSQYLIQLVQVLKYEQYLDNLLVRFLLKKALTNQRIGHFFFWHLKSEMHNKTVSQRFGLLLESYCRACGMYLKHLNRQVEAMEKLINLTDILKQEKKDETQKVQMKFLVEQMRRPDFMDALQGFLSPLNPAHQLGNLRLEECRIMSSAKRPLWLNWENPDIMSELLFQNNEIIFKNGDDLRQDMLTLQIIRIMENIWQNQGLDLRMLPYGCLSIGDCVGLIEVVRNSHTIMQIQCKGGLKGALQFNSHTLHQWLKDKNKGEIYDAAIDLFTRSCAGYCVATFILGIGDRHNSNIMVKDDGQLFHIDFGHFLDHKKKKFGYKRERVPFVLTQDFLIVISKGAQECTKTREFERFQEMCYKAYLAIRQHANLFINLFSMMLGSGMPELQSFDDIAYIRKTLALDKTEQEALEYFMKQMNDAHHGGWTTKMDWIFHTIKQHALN
Sequence of PI3Kα (P27986 whole entry partner, species assumed): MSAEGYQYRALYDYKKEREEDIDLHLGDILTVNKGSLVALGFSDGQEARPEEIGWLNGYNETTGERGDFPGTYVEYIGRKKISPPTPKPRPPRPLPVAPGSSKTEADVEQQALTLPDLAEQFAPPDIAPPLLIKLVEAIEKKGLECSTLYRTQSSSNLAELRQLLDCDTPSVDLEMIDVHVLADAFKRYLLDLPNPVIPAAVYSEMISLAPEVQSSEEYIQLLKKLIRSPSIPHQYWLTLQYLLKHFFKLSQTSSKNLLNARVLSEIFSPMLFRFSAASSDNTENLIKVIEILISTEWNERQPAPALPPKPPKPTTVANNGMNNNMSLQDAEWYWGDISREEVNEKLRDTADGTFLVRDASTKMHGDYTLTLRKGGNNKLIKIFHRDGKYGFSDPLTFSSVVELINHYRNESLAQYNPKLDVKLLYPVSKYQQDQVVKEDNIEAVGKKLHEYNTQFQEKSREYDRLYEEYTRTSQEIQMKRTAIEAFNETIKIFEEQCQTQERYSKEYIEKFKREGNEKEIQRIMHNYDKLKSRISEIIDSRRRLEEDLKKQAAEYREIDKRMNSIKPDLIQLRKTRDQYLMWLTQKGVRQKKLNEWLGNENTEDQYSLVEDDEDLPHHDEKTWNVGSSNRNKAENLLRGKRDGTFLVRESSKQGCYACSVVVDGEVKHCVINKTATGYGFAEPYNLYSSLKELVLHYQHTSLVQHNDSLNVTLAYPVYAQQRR

Consider `Oc1cccc(-c2nc(N3CCOCC3)c3oc4ncccc4c3n2)c1` [PI103, 3-(4-(4-morpholinyl)pyrido[3′,2′:4,5]furo[3,2-d]pyrimidin-2-yl)phenol], for which, in test [1] (I.P. dosing in mice, U87MG, PC3, MDA-MB-468, MDA-MB-435, HCT 116, SKOV3, IGROV-1), the “activity in human tumor xenograft models” value is reported as “demonstrated activity”.
`FC(F)c1nc2ccccc2n1-c1nc(N2CCOCC2)nc(N2CCOCC2)n1` [ZSTK474, 2-(2-difluoromethylbenzoimidazol-1-yl)-4,6-dimorpholino-1,3,5-triazine]: the “tumor growth in mouse human xenograft cancer models” value in test [1] (chronic oral administration, 400 mg/kg, A549, PC-3, WiDr) is “completely inhibited growth”. The IC50 on mTOR was above 10000 nM.
Consider `Cn1c(=O)n(-c2ccc(C(C)(C)C#N)cc2)c2c3cc(-c4cnc5ccccc5c4)ccc3ncc21` [NVP-BEZ-235, 2-methyl-2-(4-(3-methyl-2-oxo-8-(quinolin-3-yl)-2,3-dihydro-1H-imidazo[4,5-c]quinolin-1-yl)phenyl)propanenitrile], for which the “activity in human tumor xenograft models” value in test [1] (prostrate (PC-3) and glioblastoma (U-87)) was “demonstrated activity”.
For `CO[C@H]1C[C@@H]2CC[C@@H](C)[C@@](O)(O2)C(=O)C(=O)N2CCCC[C@H]2C(=O)O[C@H]([C@H](C)C[C@@H]2CC[C@@H](OC(=O)C(C)(CO)CO)[C@H](OC)C2)CC(=O)[C@H](C)/C=C(\C)[C@@H](O)[C@@H](OC)C(=O)[C@H](C)C[C@H](C)/C=C/C=C/C=C/1C` [Torisel], in test [2], the “activity in NOS/SCID xenograft mouse model of acute lymphoblastic leukemia” value is listed as “active”.
As to `CC(C)N1CCN(C(=O)c2ccc(NC(=O)Nc3ccc(-c4nc(N5CCOCC5)c5ccn(C(C)C)c5n4)cc3)cc2)CC1` [Compound 93, 1-{4-[7-(1-methylethyl)-4-morpholin-4-yl-7H-pyrrolo[2,3-d]pyrimidin-2-yl]phenyl}-3-(4-{[4-(1-methylethyl)piperazin-1-yl]carbonyl}phenyl)urea], the figures for the IC50 at PI3Kα, on PI3Kγ and at mTOR Kinase (FLAG-TOR) were 12 nM, 82 nM and 0.94 nM, respectively.
Take `O=C(Nc1ccc(-c2nc(N3CCOCC3)c3ccn(CC(F)(F)F)c3n2)cc1)Nc1cccnc1` [Compound 37, 1-{4-[4-morpholin-4-yl-7-(2,2,2-trifluoroethyl)-7H-pyrrolo[2,3-d]pyrimidin-2-yl]phenyl}-3-pyridin-3-ylurea]: the IC50 at PI3Kα worked out at 26 nM; on PI3Kγ, 97 nM; at mTOR Kinase (FLAG-TOR) it was 1.09 nM.
In the case of `CCn1ccc2c(N3CCOCC3)nc(-c3ccc(NC(=O)Nc4ccc(C(=O)N5CCN(C)CC5)cc4)cc3)nc21` [Compound 63, 1-[4-(7-ethyl-4-morpholin-4-yl-7H-pyrrolo[2,3-d]pyrimidin-2-yl)phenyl]-3-{4-[(4-methylpiperazin-1-yl)carbonyl]phenyl}urea], the IC50 came to 1.4 nM on PI3Kα, 19 nM at PI3Kγ and 1.75 nM on mTOR Kinase (FLAG-TOR).
Regarding `CCn1ccc2c(N3CCOCC3)nc(-c3ccc(NC(=O)Nc4ccc(C(=O)NCCN(C)C)cc4)cc3)nc21` [Compound 62, N-[2-(dimethylamino)ethyl]-4-({[4-(7-ethyl-4-morpholin-4-yl-7H-pyrrolo[2,3-d]pyrimidin-2-yl)phenyl]carbamoyl}amino)benzamide], the results for the IC50 at PI3Kα, on PI3Kγ and on mTOR Kinase (FLAG-TOR) were below 2.4 nM, 25 nM and 0.56 nM, respectively.
Take `CC(C)(C)NCCn1ccc2c(N3CCOCC3)nc(-c3ccc(NC(=O)Nc4ccncc4)cc3)nc21` [Compound 31, 1-(4-{7-[2-(tert-butylamino)ethyl]-4-morpholin-4-yl-7H-pyrrolo[2,3-d]pyrimidin-2-yl}phenyl)-3-pyridin-4-ylurea]: the IC50 was found to be 86 nM at PI3Kα, 404 nM on PI3Kγ and 25.5 nM at mTOR Kinase (FLAG-TOR).
For `NC(=O)Nc1cccc(Cn2ccc3c(N4CCOCC4)nc(-c4cccc(CO)c4)nc32)c1` [Compound 19, 1-[3-({2-[3-(hydroxymethyl)phenyl]-4-morpholin-4-yl-7H-pyrrolo[2,3-d]pyrimidin-7-yl}methyl)phenyl]urea], the IC50 at PI3Kα turned out to be 99 nM; on PI3Kγ it was 868 nM; on mTOR Kinase (FLAG-TOR) it was 435 nM.
Regarding `CN(C)CCn1cc(C(=O)Nc2cccnc2)c2c(N3CCOCC3)nc(-c3ccc(NC(=O)Nc4cccnc4)cc3)nc21` [Compound 10, 7-[2-(dimethylamino)ethyl]-4-morpholin-4-yl-N-pyridin-3-yl-2-{4-[(pyridin-3-ylcarbamoyl)amino]phenyl}-7H-pyrrolo[2,3-d]pyrimidine-5-carboxamide], the IC50 at PI3Kα came out at 16 nM; at PI3Kγ, 72 nM; on mTOR Kinase (FLAG-TOR), 0.88 nM.
Regarding `CC(C)(C)OC(=O)N1CCC(n2ccc3c(N4CCOCC4)nc(-c4ccc(NC(=O)Nc5cccnc5)cc4)nc32)CC1` [Compound 94, tert-butyl 4-(4-morpholin-4-yl-2-{4-[(pyridin-3-ylcarbamoyl)amino]phenyl}-7H-pyrrolo[2,3-d]pyrimidin-7-yl)piperidine-1-carboxylate], the IC50 at PI3Kα was 11000 nM; on PI3Kγ, above 10000 nM; on mTOR Kinase (FLAG-TOR), 1350 nM.
On to `CN(C)CCOc1ccc(NC(=O)Nc2ccc(-c3nc(N4CCOCC4)c4ccn(CC(F)(F)F)c4n3)cc2)cc1` [Compound 58, 1-{4-[2-(dimethylamino)ethoxy]phenyl}-3-{4-[4-morpholin-4-yl-7-(2,2,2-trifluoroethyl)-7H-pyrrolo[2,3-d]pyrimidin-2-yl]phenyl}urea], for which the IC50 at PI3Kα was 2 nM; at PI3Kγ, 11 nM; at mTOR Kinase (FLAG-TOR), 4.5 nM.
As to `CC(C)n1ccc2c(N3CCOCC3)nc(-c3ccc(NC(=O)Nc4ccc(N5CCN(C)CC5)cc4)cc3)nc21` [Compound 80, 1-[4-(7-isopropyl-4-morpholin-4-yl-7H-pyrrolo[2,3-d]pyrimidin-2-yl)phenyl]-3-[4-(4-methylpiperazin-1-yl)phenyl]urea], the IC50 at PI3Kα was determined as 47 nM; at PI3Kγ, 135 nM; on mTOR Kinase (FLAG-TOR), 2.8 nM.
Consider `CCN1CCN(C(=O)c2ccc(NC(=O)Nc3ccc(-c4nc(N5CCOCC5)c5ccn(C(C)C)c5n4)cc3)cc2)CC1` [Compound 92, 1-{4-[(4-ethylpiperazin-1-yl)carbonyl]phenyl}-3-{4-[7-(1-methylethyl)-4-morpholin-4-yl-7H-pyrrolo[2,3-d]pyrimidin-2-yl]phenyl}urea], for which the IC50 at PI3Kα was determined as 8.5 nM; on PI3Kγ, 72 nM; on mTOR Kinase (FLAG-TOR) it was 0.67 nM.
For the compound `CNCCn1ccc2c(N3CCOCC3)nc(-c3ccc(NC(=O)Nc4ccncc4)cc3)nc21` [Compound 33, 1-(4-{7-[2-(methylamino)ethyl]-4-morpholin-4-yl-7H-pyrrolo[2,3-d]pyrimidin-2-yl}phenyl)-3-pyridin-4-ylurea], the IC50 on PI3Kα stood at 12 nM; at PI3Kγ, 100 nM; on mTOR Kinase (FLAG-TOR) it was 5.3 nM.

These data come from patent publication US20100003250A1, “(2-ARYL-7H-PYRROLO[2,3-D]PYRIMIDIN-4-YL)MORPHOLINE COMPOUNDS, THEIR USE AS MTOR KINASE AND PI3 KINASE INHIBITORS, AND THEIR SYNTHESES” (Wyeth, priority 2008, published 2010).
